Earlier results as cited in patent US12544394B2, “Compositions and methods for treatment of fibrosis” (priority 2017, dated 2026).

Legend:
[1] = tested on: steatosis; details: vitamin E 400-1000 IU/day for 4-10 months
[2] = tested on: NASH; details: patients with biopsy proven NASH, oral vitamin E supplementation
[3] = humans, oral route of administration
[4] = tested on: liver fibrosis; details: DLPC fed in chow (U.S. Pat. No. 5,284,835)

Row | Compound | mean AST levels after treatment ([1]; decreased from 104.+−.61 IU/L, P<0.002) | mean ALT levels after treatment ([1]; decreased from 175.+−.106 IU/L, P<0.01) | liver histology outcome [2] | clinical effect [3] | liver fibrosis [4]
1 | Cc1c(C)c2c(c(C)c1O)CC[C@@](C)(CCC[C@H](C)CCC[C@H](C)CCCC(C)C)O2 [vitamin E, Alpha-tocopherol] | 33.+−.11 IU/L | 40.+−.26 IU/L | improvement in hepatic steatosis and lobular inflammation but not portal inflammation or fibrosis | – | –
2 | CCCCCCCCCCCC(=O)OC[C@H](COP(=O)([O-])OCC[N+](C)(C)C)OC(=O)CCCCCCCCCCC [DLPC, 1,2-dilauroyl-sn-glycero-3-phosphocholine] | – | – | – | no significant clinical effect | slow liver fibrosis
